The subject of the test is STAT1 (phosphorylated at Tyr701) in NCI-H1373 cells. In words: Phospho-STAT1 (Tyr701) LANCE Ultra TR-FRET detection assay in NCI-H1373 cells. Format: cell-based. Particulars: Homo sapiens, NCI-H1373, 48 h, 48 hours incubation, induction of pSTAT1, normalized to 10 uM positive control and DMSO, 4-parameter fit, read-out: NH1373 pSTAT1 EC50. The method, then:
Phospho-STAT1 (Tyr701 LANCE Ultra TR-FRET Detection Assay
LANCE Ultra phospho-STAT1 (Tyr701) kits are designed for the detection of phosphorylated STAT1 in cell lysates using a simple, homogeneous LANCE Ultra sandwich assay (Cat. #TRF4028M). This assay is intended for assessing compound induction of endogenous levels of cellular STAT1 (phosphorylated at Tyr701) in NCI-H1373 cells. The NCI-H1373 cells are cultured in RPMI 1640 media containing 10% heat inactivated FBS, GlutaMAX, 1% Penicillin-Streptomycin. An Echo acoustic liquid handler is used to transfer 60 nanoliters of compound dilutions using the Echo Qualified, 384-well polypropylene microplate clear flat bottom source plates into a Greiner (#781080) cell culture microplate. NCI-H1373 cells are seeded into these compound-spotted culture plates at 30,000 cells/well in a 60 uL volume in growth media. The plates are incubated in a 5% CO2 humidified incubator at 37° C. for 48 hours. […] Briefly, […] of supplemented lysis buffer is added to each well and allowed to shake for 1 hour at 400 rpm. Next, 5 ul of remixed antibody solutions (vol/vol) prepared in detection buffer are added to each well and allowed to incubate at room temperature overnight. After spinning the plate down at 300 rpm for 1 min, the plate is read on an EnVision plate reader set up for Eu^3+ Cryptate and fluorescence emission is measured at two different wavelengths (665 nm and 620 nm). The HTRF ratio is then calculated ([…]) for each well to determine the amount of pSTAT1 in the cell lysate, and the data is then normalized to 10 uM (S)-5-((1-(3-oxo-3-(4-(5-(trifluoromethyl)pyrimidin-2-yl)piperazin-1-yl)propoxy)propan-2-yl)amino)-4-(trifluoromethyl)pyridazin-3(2H)-one positive and DMSO negative controls. The values were then plotted as a function of compound concentration and a 4-parameter fit was applied to derive the EC50 values.
The EC50 is the midpoint of the concentration-response curve. `C[C@@H](C[C@H](F)Cn1cnc2cc(-c3ncc(C(F)(F)F)cn3)c(F)cc2c1=O)Oc1cn[nH]c(=O)c1C(F)(F)F` [Example 58]: the 50% effective concentration (EC50) turned out to be 35.3 nM.

With `C[C@@H](CC(F)Cn1ccc2cc(-c3ncc(C(F)(F)F)cn3)c(F)cc2c1=O)Nc1cn[nH]c(=O)c1C(F)(F)F` (stereo partly drawn) [Example 1, 7-fluoro-2-[(4S)-2-fluoro-4-[[6-oxo-5-(trifluoromethyl)-1H-pyridazin-4-yl]amino]pentyl]-6-[5-(trifluoromethyl)pyrimidin-2-yl]isoquinolin-1-one], the EC50 was determined as 1.88 nM.

In the case of `O=c1[nH]ncc(N[C@@H](CO)C[C@@H](F)Cn2ccc3cc(-c4ncc(C(F)F)cn4)c(F)cc3c2=O)c1C(F)(F)F` [Example 125], the EC50 turned out to be 41.2 nM.

With `COc1cnc(-c2cc3ccn(CC(F)CC(COC(F)F)Nc4cn[nH]c(=O)c4C(F)(F)F)c(=O)c3cc2F)nc1` (stereo not shown) [Example 128], the EC50 turned out to be 3.08 nM.

Take `COc1cnc(-c2cc3ccn(C[C@H](F)C[C@H](C)Oc4cn[nH]c(=O)c4C(F)(F)F)c(=O)c3cc2F)nc1` [Example 45]: the concentration giving a half-maximal response (EC50) was 1.01 nM.

Turning to `C[C@@H](C[C@@H](F)Cn1ccc2cc(-c3ncc([C@H](F)CF)cn3)c(F)cc2c1=O)Nc1cn[nH]c(=O)c1C(F)(F)F` [Example 93], the concentration giving a half-maximal response (EC50) came out at 1000 nM.

Take `C[C@@H](C[C@@H](F)Cn1ccc2cc(-c3ccccn3)c(F)cc2c1=O)Nc1cn[nH]c(=O)c1C(F)(F)F` [Example 74]: the EC50 was found to be 6.56 nM.

Regarding `C[C@@H](C[C@@H](F)Cn1ccc2cc(-c3ncc(C(F)(F)CO)cn3)c(F)cc2c1=O)Nc1cn[nH]c(=O)c1C(F)(F)F` [Example 85], the 50% effective concentration (EC50) worked out at 4.39 nM.

For `C[C@@H](C[C@@H](F)CN1Cc2cc(-c3ncc(C(F)(F)F)cn3)c(F)cc2C1=O)Nc1cn[nH]c(=O)c1C(F)(F)F` [Example 117, 6-fluoro-2-[(2R,4S)-2-fluoro-4-[[6-oxo-5-(trifluoromethyl)-1H-pyridazin-4-yl]amino]pentyl]-5-[5-(trifluoromethyl)pyrimidin-2-yl]isoindolin-1-one], the EC50 came to 11.8 nM.

As for `CC(C[C@H](C)Nc1cn[nH]c(=O)c1C(F)(F)F)Cn1ccc2cc(-c3ncc(C(F)(F)F)cn3)c(F)cc2c1=O` (stereo partly drawn) [Example 116, 7-fluoro-2-((4S)-2-methyl-4-((6-oxo-5-(trifluoromethyl)-1,6-dihydropyridazin-4-yl)amino)pentyl)-6-(5-(trifluoromethyl)pyrimidin-2-yl)isoquinolin-1(2H)-one], the EC50 stood at 89.9 nM.

As for `C[C@@H](C[C@@H](F)Cn1ccc2cc(-c3ncc(OC(F)(F)F)cn3)c(F)cc2c1=O)Nc1cn[nH]c(=O)c1C(F)(F)F` [Example 77], the half-maximal effective concentration (EC50) was 2.5 nM.

For the compound `COc1cnc(-c2cc3c(F)cn(C[C@H](F)C[C@H](C)Oc4cn[nH]c(=O)c4C(F)(F)F)c(=O)c3cc2F)nc1` [Example 53], the EC50 was determined as 202 nM.

Consider `C[C@@H](C[C@@H](F)Cn1cnc2cc(-c3ncc(C(F)F)cn3)c(F)cc2c1=O)Nc1cn[nH]c(=O)c1C(F)(F)F` [Example 70], for which the EC50 came out at 3.31 nM.

For `C[C@@H](C[C@@H](F)Cn1cc(F)c2cc(-c3ncc(C(F)F)c(N)n3)c(F)cc2c1=O)Oc1cn[nH]c(=O)c1C(F)(F)F` [Example 54], the concentration for a half-maximal effect (EC50) came to 23.7 nM.

For `C[C@@H](C[C@@H](F)Cn1ccc2cc(-c3ncc(C(F)F)cn3)c(F)cc2c1=O)Nc1cn[nH]c(=O)c1C(F)(F)F` (single isomer, unassigned) [Example 4], the EC50 turned out to be 1.08 nM.

`O=c1[nH]ncc(NC(COC(F)F)CC(F)Cn2ccc3cc(-c4ncc(C(F)F)cn4)c(F)cc3c2=O)c1C(F)(F)F` (stereo not shown) [Example 130]: the 50% effective concentration (EC50) came to 2.24 nM.

Consider `C[C@@H](C[C@@H](F)Cn1ccc2cc(-c3ncco3)c(F)cc2c1=O)Nc1cn[nH]c(=O)c1C(F)(F)F` [Example 102], for which the 50% effective concentration (EC50) was 170 nM.

As to `COc1cnc(-c2cc3ccn(C[C@@H](F)C[C@H](C)Oc4cn[nH]c(=O)c4C(F)(F)F)c(=O)c3cc2F)nc1N` [Example 59], the EC50 came to 1.21 nM.

On to `C[C@@H](C[C@@H](F)Cn1ccc2cc(-c3ncc(OC(F)F)cn3)c(F)cc2c1=O)Nc1cn[nH]c(=O)c1C(F)(F)F` [Example 97], for which the EC50 worked out at 0.97 nM.

For the compound `C[C@@H](C[C@@H](F)Cn1ccc2cc(-c3ncc(C(F)(F)F)cn3)c(F)c(F)c2c1=O)Nc1cn[nH]c(=O)c1C(F)(F)F` [Example 32], the EC50 came out at 0.912 nM.

For the compound `C[C@@H](C[C@@H](F)Cn1ccc2cc(-c3ncc(C(F)(F)F)cc3F)c(F)cc2c1=O)Nc1cn[nH]c(=O)c1C(F)(F)F` [Example 75], the EC50 was 4.51 nM.

In the case of `C[C@@H](C[C@@H](F)CN1CCc2cc(-c3ncc(C(F)(F)F)cn3)c(F)cc2C1=O)Nc1cn[nH]c(=O)c1C(F)(F)F` [Example 132, 7-fluoro-2-[(2R,4S)-2-fluoro-4-[[6-oxo-5-(trifluoromethyl)-1H-pyridazin-4-yl]amino]pentyl]-6-[5-(trifluoromethyl)pyrimidin-2-yl]-3,4-dihydroisoquinolin-1-one], the half-maximal effective concentration (EC50) came to 2.7 nM.

Take `[2H]C([2H])([2H])Oc1cnc(-c2cc3ncn(C[C@H](F)C[C@H](C)Nc4cn[nH]c(=O)c4C(F)(F)F)c(=O)c3cc2F)nc1` [Example 115]: the EC50 was determined as 7.27 nM.

In the case of `C[C@@H](C[C@H](O)Cn1ccc2cc(-c3ncc(C(F)F)cn3)c(F)cc2c1=O)Oc1cn[nH]c(=O)c1C(F)(F)F` (single isomer, unassigned) [Example 20], the concentration giving a half-maximal response (EC50) worked out at 33 nM.

For the compound `C[C@@H](C[C@@H](F)Cn1cnc2cc(-c3ncc(C(F)(F)F)cn3)c(F)cc2c1=O)Nc1cn[nH]c(=O)c1C(F)(F)F` [Example 71], the half-maximal effective concentration (EC50) worked out at 2.17 nM.

`C[C@@H](C[C@@H](F)Cn1ccc2cc(-c3ncc(C(F)(F)F)cn3)c(F)cc2c1=O)Oc1cn[nH]c(=O)c1C(F)(F)F` [Example 12]: the concentration for a half-maximal effect (EC50) was 45.1 nM.

`COc1cnc(-c2cc3c(F)cn(C[C@H](F)C[C@H](C)Nc4cn[nH]c(=O)c4C(F)(F)F)c(=O)c3cc2F)nc1` [Example 25]: the EC50 was 1.01 nM.

For `C[C@@H](CC(O)Cn1ccc2cc(-c3ncc(C(F)(F)F)cn3)c(F)cc2c1=O)Oc1cn[nH]c(=O)c1C(F)(F)F` (stereo partly shown) [Example 16], the EC50 was 1.12 nM.

With `C[C@@H](C[C@H](F)Cn1ccc2cc(-c3ncc(C(F)(F)F)cn3)c(F)cc2c1=O)Oc1cn[nH]c(=O)c1C(F)(F)F` [Example 13], the EC50 is 1.32 nM.

With `C[C@@H](C[C@@H](F)Cn1ccc2cc(-c3ncc(OC(F)(F)CO)cn3)c(F)cc2c1=O)Nc1cn[nH]c(=O)c1C(F)(F)F` [Example 82], the concentration giving a half-maximal response (EC50) amounted to 2.15 nM.

As for `C[C@@H](C[C@@H](F)Cn1ccc2cc(-c3ncc(C(F)F)cn3)c(F)cc2c1=O)Oc1cn[nH]c(=O)c1C(F)(F)F` [Example 48], the concentration for a half-maximal effect (EC50) came to 1.05 nM.

`C[C@@H](C[C@@H](F)Cn1ccc2cc(-c3ncc(C(F)F)c(N)n3)c(F)c(F)c2c1=O)Nc1cn[nH]c(=O)c1C(F)(F)F` [Example 101]: the EC50 was found to be 4.36 nM.

As for `C[C@@H](C[C@@H](F)Cn1ccc2cc(-c3ncc(C(C)(O)C(F)(F)F)cn3)c(F)cc2c1=O)Nc1cn[nH]c(=O)c1C(F)(F)F` (stereo partly shown) [Example 84], the concentration giving a half-maximal response (EC50) was found to be 2.79 nM.

Regarding `C[C@@H](C[C@@H](F)Cn1ccc2cc(-c3ncc(C(C)(F)F)cn3)c(F)c(F)c2c1=O)Oc1cn[nH]c(=O)c1C(F)(F)F` [Example 46], the EC50 worked out at 0.667 nM.

For `CC(C)(O)c1cnc(-c2cc3ccn(CCCC(COC(F)F)Oc4cn[nH]c(=O)c4C(F)(F)F)c(=O)c3cc2F)nc1` (stereo not shown) [Example 33, 2-(5-(difluoromethoxy)-4-((6-oxo-5-(trifluoromethyl)-1,6-dihydropyridazin-4-yl)oxy)pentyl)-7-fluoro-6-(5-(2-hydroxypropan-2-yl)pyrimidin-2-yl)isoquinolin-1(2H)-one], the 50% effective concentration (EC50) was 23.3 nM.

As for `C[C@@H](C[C@@H](F)Cn1ccc2cc(-c3ncc(C(C)(F)F)cn3)c(F)c(F)c2c1=O)Nc1cn[nH]c(=O)c1C(F)(F)F` [Example 98], the EC50 turned out to be 0.97 nM.

As for `C[C@@H](C[C@H](F)Cn1ccc2cc(-c3ncc(C(C)(C)O)cn3)c(F)cc2c1=O)Nc1cn[nH]c(=O)c1C(F)(F)F` (single isomer, unassigned) [Example 9], the EC50 amounted to 238 nM.

As to `C[C@@H](C[C@H](F)Cn1ccc2cc(-c3ncc(C(F)F)c(N)n3)c(F)cc2c1=O)Oc1cn[nH]c(=O)c1C(F)(F)F` (single isomer, unassigned) [Example 15], the EC50 turned out to be 0.786 nM.

Regarding `COc1cnc(-c2cc3ccn(C[C@H](F)C[C@H](C)Nc4cn[nH]c(=O)c4C(F)(F)F)c(=O)c3cc2F)nc1` (single isomer, unassigned) [Example 6], the EC50 was 0.809 nM.

With `C[C@@H](C[C@@H](F)Cn1cc(F)c2cc(-c3ncc(C(C)(C)O)cn3)c(F)cc2c1=O)Oc1cn[nH]c(=O)c1C(F)(F)F` (single isomer, unassigned) [Example 56], the EC50 was 1.51 nM.

Values taken from US20250066328A1, “PARP7 INHIBITORS” (Gilead Sciences, Inc., priority 2023, published 2025).
